Results on 15 molecules are retold here after ChEMBL document CHEMBL1142674, “Amino acid ester prodrugs of the antiviral agent 2-bromo-5,6-dichloro-1-(beta-D-ribofuranosyl)benzimidazole as potential substrates of hPEPT1 transporter” (J Med Chem, 2005).

Assay type in all cases: cell-based
For assay [1], the target named is T1, Solute carrier family 15 member 1 (Homo sapiens, UniProt P46059).
T1 sequence (P46059 whole entry): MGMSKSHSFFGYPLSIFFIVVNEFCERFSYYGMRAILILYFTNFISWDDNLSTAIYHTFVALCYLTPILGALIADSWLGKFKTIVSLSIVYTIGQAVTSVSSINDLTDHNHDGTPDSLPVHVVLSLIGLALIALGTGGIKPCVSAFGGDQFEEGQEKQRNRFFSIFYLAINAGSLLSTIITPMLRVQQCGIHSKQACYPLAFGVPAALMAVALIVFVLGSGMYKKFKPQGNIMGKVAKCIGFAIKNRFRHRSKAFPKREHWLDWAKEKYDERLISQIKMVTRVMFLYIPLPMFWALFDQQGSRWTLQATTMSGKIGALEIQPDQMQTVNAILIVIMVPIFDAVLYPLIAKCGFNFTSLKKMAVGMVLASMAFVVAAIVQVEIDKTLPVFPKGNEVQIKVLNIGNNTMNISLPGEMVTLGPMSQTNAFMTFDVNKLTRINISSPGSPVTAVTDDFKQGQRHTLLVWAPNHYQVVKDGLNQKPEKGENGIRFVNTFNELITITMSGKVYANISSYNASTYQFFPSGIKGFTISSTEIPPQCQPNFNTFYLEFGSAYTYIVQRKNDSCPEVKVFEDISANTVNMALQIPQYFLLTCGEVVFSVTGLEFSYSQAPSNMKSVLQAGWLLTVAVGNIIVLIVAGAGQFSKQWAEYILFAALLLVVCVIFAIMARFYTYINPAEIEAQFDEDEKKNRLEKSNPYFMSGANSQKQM
Kind of assay: Inhibitory concentration against [3H]glycylsarcosine uptake in HeLa cells expressing human Intestinal peptide transporter PepT1.

In assay [2] the target is T2, Solute carrier family 15 member 1 (Homo sapiens) (UniProt P46059).
T2 sequence (whole entry): T1 sequence (P46059 whole entry)
The experiment in a line: Relative inhibition of [3H]glycylsarcosine uptake in HeLa cells expressing human Intestinal peptide transporter PepT1 compared to BDCRB.

Assay [3] deals with T2, Solute carrier family 15 member 1 (Homo sapiens). The experiment in a line: Relative inhibition of [3H]glycylsarcosine uptake in HeLa cells expressing human Intestinal peptide transporter PepT1 compared to BDCRB; na=Not applicable.

The source made the active and inactive calls. The calls are words filed in the database; no cut-off is given here.

On to `CCOc1ccc(C[C@H](N)C(=O)OC[C@H]2OC(n3c(Br)nc4cc(Cl)c(Cl)cc43)[C@H](O)[C@@H]2O)cc1` (stereo partly drawn), for which the IC50 (as a rule, the concentration that inhibits the measured activity by half) in assay [1] is 96 µM. Also, in assay [2], the Ratio was 4.7. In the case of `N[C@H](Cc1ccccc1)C(=O)OC[C@H]1OC(n2c(Br)nc3cc(Cl)c(Cl)cc32)[C@H](O)[C@@H]1O` (stereo partly drawn), the IC50 in assay [1] amounted to 282 µM. Moreover, the Ratio in assay [2] came out at 1.6. Regarding `CC(C)[C@@H](N)C(=O)OC[C@H]1OC(n2c(Br)nc3cc(Cl)c(Cl)cc32)[C@H](O)[C@@H]1O` (stereo partly drawn), the IC50 in assay [1] is 342 µM. Further, the Ratio in assay [2] stood at 1.3. In the same order, the values of `N[C@@H](Cc1ccccc1)C(=O)OC[C@H]1OC(n2c(Br)nc3cc(Cl)c(Cl)cc32)[C@H](O)[C@@H]1O` (stereo partly drawn) are 218 µM and 2.1.

`CCC(C)[C@H](N)C(=O)OC[C@H]1O[C@@H](n2c(Br)nc3cc(Cl)c(Cl)cc32)[C@H](O)[C@@H]1O` (stereo partly drawn) displayed a concentration for half-maximal inhibition (IC50) in assay [1] of 121 µM. Further, the Ratio in assay [2] is 3.7. `NCCCC[C@H](N)C(=O)OC[C@H]1OC(n2c(Br)nc3cc(Cl)c(Cl)cc32)[C@H](O)[C@@H]1O` (stereo partly drawn) came in with an IC50 in assay [1] of 477 µM. For the same molecule, the Ratio in assay [2] is 0.9. In the same order, the values of `N[C@@H](CC(=O)O)C(=O)OC[C@H]1OC(n2c(Br)nc3cc(Cl)c(Cl)cc32)[C@H](O)[C@@H]1O` (stereo partly drawn) are 260 µM and 1.7.

Take `N[C@@H](Cc1ccc(Cl)cc1)C(=O)OC[C@H]1OC(n2c(Br)nc3cc(Cl)c(Cl)cc32)[C@H](O)[C@@H]1O` (stereo partly drawn): the half-maximal inhibitory concentration (IC50) in assay [1] worked out at 142 µM. Also, the Ratio in assay [2] came to 3.1. On to `CC(C)[C@H](N)C(=O)OCCOCn1cnc2c(=O)[nH]c(N)nc21` [VALACYCLOVIR], for which, in assay [1], the concentration for half-maximal inhibition (IC50) turned out to be 431 µM.

Turning to `CC(C)[C@H](N)C(=O)OCCOCn1cnc2c(=O)nc(N)[nH]c21`, the Ratio result in assay [3] was “inactive”. For `O=C(OC[C@H]1OC(n2c(Br)nc3cc(Cl)c(Cl)cc32)[C@H](O)[C@@H]1O)[C@@H]1CCCN1` (stereo partly drawn), the IC50 in assay [1] came out at 537 µM. The Ratio in assay [2] was determined as 0.8. Taken in the same sequence, the figures for `COc1ccc(C[C@H](N)C(=O)OC[C@H]2OC(n3c(Br)nc4cc(Cl)c(Cl)cc43)[C@H](O)[C@@H]2O)cc1` (stereo partly drawn) were 300 µM and 1.5. In the same order, the values of `N[C@H](CC(=O)O)C(=O)OC[C@H]1OC(n2c(Br)nc3cc(Cl)c(Cl)cc32)[C@H](O)[C@@H]1O` (stereo partly drawn) are 421 µM and 1.1. Regarding `OC[C@H]1O[C@H](n2c(Br)nc3cc(Cl)c(Cl)cc32)[C@@H](O)[C@H]1O`, the Ratio result in assay [3] is “inactive”. This molecule also displayed an IC50 in assay [1] of 447 µM. `CC(C)[C@H](N)C(=O)OC[C@H]1OC(n2c(Br)nc3cc(Cl)c(Cl)cc32)[C@H](O)[C@@H]1O` (stereo partly drawn) gave an IC50 in assay [1] of 166 µM. In assay [2], the Ratio stood at 2.7.
